Experimental data taken from the supplement of paper PMC9938120.

Columns and labels:
Test in all cases: drug sensitivity score (DSS3, normalised partial AUC of % inhibition dose-response) (DSS (score)); higher = more sensitive (stronger inhibition of viability); extreme values may be limits of the assay
[1] = test system: FMOC06 (patient-derived mucinous ovarian cancer cells); settings: 72 h; library: FO5A; assay format: 2D, 384-well, CellTiter-Glo
Method in brief: (§1)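 Patient-derived ovarian cancer cells (early passage, under 10) were dispensed onto 384-well flat clear-bottom plates pre-plated with compounds at five concentrations covering a 10,000-fold range. Plates were incubated 72 h at 37 °C, 5% CO2, and viability was read with CellTiter-Glo. Data were processed in Breeze. The drug sensitivity score (DSS3) is a partial area under the percent-inhibition dose-response curve, divided by the log of the upper asymptote; higher means more sensitive.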

[2] = test system: FMOC02_3 (patient-derived low-grade serous ovarian cancer cells); settings: 72 h; library: FO5A; assay format: 2D, 384-well, CellTiter-Glo
Method in brief: as §1

[3] = test system: FMOC27 (patient-derived low-grade serous ovarian cancer cells); settings: 72 h; library: FO5A; assay format: 2D, 384-well, CellTiter-Glo
Method in brief: as §1

[4] = test system: FMOC22 (patient-derived mucinous ovarian cancer cells); settings: 72 h; library: FO5A; assay format: 2D, 384-well, CellTiter-Glo
Method in brief: as §1

[5] = test system: FMOC25_1 (patient-derived low-grade serous ovarian cancer cells); settings: 72 h; library: FO4B; assay format: 2D, 384-well, CellTiter-Glo
Method in brief: as §1

[6] = test system: FMOC25_2 (patient-derived low-grade serous ovarian cancer cells); settings: 72 h; library: FO5A; assay format: 2D, 384-well, CellTiter-Glo
Method in brief: as §1

[7] = test system: FMOC04 (patient-derived high-grade serous ovarian cancer cells); settings: 72 h; library: FO5A; assay format: 2D, 384-well, CellTiter-Glo
Method in brief: as §1

[8] = test system: FMOC17 (patient-derived low-grade serous ovarian cancer cells); settings: 72 h; library: FO5A; assay format: 2D, 384-well, CellTiter-Glo
Method in brief: as §1

[9] = test system: FMOC02_1 (patient-derived low-grade serous ovarian cancer cells); settings: 72 h; library: FO5A; assay format: 2D, 384-well, CellTiter-Glo
Method in brief: as §1

[10] = test system: FMOC02_2 (patient-derived low-grade serous ovarian cancer cells); settings: 72 h; library: FO5A; assay format: 2D, 384-well, CellTiter-Glo
Method in brief: as §1

[11] = test system: FMOC03 (patient-derived mucinous ovarian cancer cells); settings: 72 h; library: FO5A; assay format: 2D, 384-well, CellTiter-Glo
Method in brief: as §1

[12] = test system: FMOC11 (patient-derived high-grade serous ovarian cancer cells); settings: 72 h; library: FO5A; assay format: 2D, 384-well, CellTiter-Glo
Method in brief: as §1

[13] = test system: FMOC28 (patient-derived low-grade serous ovarian cancer cells); settings: 72 h; library: FO5A; assay format: 2D, 384-well, CellTiter-Glo
Method in brief: as §1

[14] = test system: FMOC09 (patient-derived high-grade serous ovarian cancer cells); settings: 72 h; library: FO5A; assay format: 2D, 384-well, CellTiter-Glo
Method in brief: as §1

[15] = test system: FMOC24 (patient-derived high-grade serous ovarian cancer cells); settings: 72 h; library: FO5A; assay format: 2D, 384-well, CellTiter-Glo
Method in brief: as §1

[16] = test system: FMOC14 (patient-derived high-grade serous ovarian cancer cells); settings: 72 h; library: FO5A; assay format: 2D, 384-well, CellTiter-Glo
Method in brief: as §1

| Structure (SMILES) | drug sensitivity score [1] | drug sensitivity score [2] | drug sensitivity score [3] | drug sensitivity score [4] | drug sensitivity score [5] | drug sensitivity score [6] | drug sensitivity score [7] | drug sensitivity score [8] | drug sensitivity score [9] | drug sensitivity score [10] | drug sensitivity score [11] | drug sensitivity score [12] | drug sensitivity score [13] | drug sensitivity score [14] | drug sensitivity score [15] | drug sensitivity score [16] |
| --- | --- | --- | --- | --- | --- | --- | --- | --- | --- | --- | --- | --- | --- | --- | --- | --- |
| CCNC(=O)CCC/C=C\C[C@@H]1[C@@H](/C=C/[C@@H](O)CCc2ccccc2)[C@H](O)C[C@@H]1O [Bimatoprost] | 0 | 0 | 0 | 0 | 0 | 0 | 0 | 0 | 0 | 0 | 0 | 0 | 0 | 0 | 0 | 0 |
| Oc1ccc2c(c1)CC[C@H](c1ccccc1)[C@@H]2c1ccc(OCCN2CCCC2)cc1 [Lasofoxifene] | 0 | 0 | 0 | 0 | 0 | 0 | 0 | 0 | 0 | 0 | 0 | 0 | 0 | 0 | 0 | 1.1 |
| CC(=O)c1c(C)c2cnc(Nc3ccc(N4CCNCC4)cn3)nc2n(C2CCCC2)c1=O [Palbociclib] | 2.5 | 6.2 | 1.1 | 0.5 | 2.5 | 5.2 | 0.65 | 0.7 | 3.8 | 4.9 | 2.7 | 1.4 | 3.9 | 0.5 | 2.95 | 1.6 |
| Cn1cncc1[C@@](N)(c1ccc(Cl)cc1)c1ccc2c(c1)c(-c1cccc(Cl)c1)cc(=O)n2C [Tipifarnib] | 8.8 | 9.5 | 3.3 | 5.3 | 9.7 | 9.8 | 4.45 | 1.8 | 6.9 | 6.2 | 6 | 5.3 | 5.8 | 2.2 | 4.1 | 3.5 |
| Cn1ncc(Cl)c1-c1cc(C(=O)N[C@H](CN)Cc2cccc(F)c2)sc1Cl [Afuresertib] | 2.9 | 4.4 | 5.4 | 0 | 2.9 | 4.3 | 1.65 | 3 | 4.7 | 6.6 | 0 | 0.2 | 3.8 | 1 | 1.3 | 3.2 |
| CC(C)(C)c1nc(-c2cccc(NS(=O)(=O)c3c(F)cccc3F)c2F)c(-c2ccnc(N)n2)s1 [Dabrafenib] | 0 | 4.7 | 0 | 0 | 1.8 | 4 | 0 | 0.1 | 5.9 | 0.8 | 0 | 0 | 1.4 | 0 | 0 | 0 |
| C[C@]12CC[C@H](O)CC1=CC[C@@H]1[C@@H]2CC[C@]2(C)C(c3cccnc3)=CC[C@@H]12 [Abiraterone] | 0.1 | 0 | 0 | 0 | 0.3 | 0.6 | 0.05 | 0 | 0 | 1.3 | 0 | 0 | 0.6 | 0 | 4.9 | 2.3 |
| CNC(=O)c1cccc2cc(Oc3ccnc4cc(OCC5(N)CC5)c(OC)cc34)ccc12 [Lucitanib] | 0.3 | 1.7 | 1.4 | 0.2 | 0.3 | 1.4 | 0.4 | 0.2 | 2.6 | 0.4 | 0.1 | 1.1 | 4.1 | 1.2 | 1.45 | 0 |
| CN1CCN(c2ccc3nc(-c4c(N)c5c(F)cccc5[nH]c4=O)[nH]c3c2)CC1 [Dovitinib] | 0 | 1.1 | 0 | 0 | 0.2 | 0.4 | 0 | 0 | 0.6 | 1.4 | 0 | 0.1 | 1 | 0 | 1.6 | 0 |
| Cc1cc([C@@H](C)Nc2ccccc2C(=O)O)c2nc(N3CCOCC3)cc(=O)n2c1 [AZD-6482] | 0 | 2.3 | 0 | 0 | 2.5 | 0.8 | 0 | 2.8 | 0 | 0.6 | 0.5 | 0.9 | 0 | 0.1 | 0.5 | 0.4 |
| CNC(=O)c1ccccc1Sc1ccc2c(/C=C/c3ccccn3)n[nH]c2c1 [Axitinib] | 0 | 0.1 | 0 | 1.2 | 0 | 0 | 0.45 | 0.3 | 1.9 | 0.5 | 2.1 | 0.1 | 0 | 0 | 2.15 | 0 |
| CC(C)(O)CC(=O)NCCn1ccc2ncnc(Nc3ccc(Oc4cccc(C(F)(F)F)c4)c(Cl)c3)c21 [TAK-285] | 1.3 | 5.3 | 4.3 | 0 | 5 | 4.8 | 0 | 4.5 | 6.2 | 8.6 | 5.1 | 2.7 | 2.4 | 3.7 | 0.9 | 1 |
| C[C@H]1CN(C2COC2)CCN1c1ccc(Nc2cc(-c3ccnc(N4CCn5c(cc6c5CC(C)(C)C6)C4=O)c3CO)cn(C)c2=O)nc1 [GDC-0853] | 0 | 0 | 0 | 0 | – | 0 | 0 | 0 | 0 | 0 | 0 | 0 | 0.4 | 0 | 0 | 0 |
| CC(C)(O)CNc1nc(Nc2ccnc(C(F)(F)F)c2)nc(-c2cccc(C(F)(F)F)n2)n1 [Enasidenib] | 0 | 0 | 0 | 0 | – | 1.7 | 0 | 2.3 | 1.5 | 2.5 | 1.4 | 0 | 4.4 | 0 | 0 | 0 |
| COc1cccc(-c2ccc(NC(=O)C3=C(C(=O)O)CCC3)c(F)c2)c1 [Vidofludimus] | 0 | 0 | 0 | 0 | – | 2.5 | 0.05 | 0 | 0 | 0 | 0.4 | 0.6 | 0 | 0 | 0 | 0 |
| CC1=C2C[C@H]3[C@@H](CC[C@@H]4C[C@H](NS(C)(=O)=O)CC[C@@]43C)[C@@H]2CC[C@@]2(C1)O[C@@H]1C[C@H](C)CN[C@H]1[C@H]2C [Saridegib] | 0 | 0 | 0 | 0 | – | 0 | 0 | 4.1 | 0 | 2.2 | 0 | 0 | 2.2 | 0 | 0.3 | 0 |
| CC#CC(=O)N1CCC[C@H]1c1nc(-c2ccc(C(=O)Nc3ccccn3)cc2)c2c(N)nccn12 [Acalabrutinib] | 2.6 | 0.7 | 0 | 0 | – | 0 | 0.6 | 2.2 | 0.3 | 0 | 0 | 0.2 | 0.5 | 0.8 | 0 | 0 |
| COC(=O)c1ccc([C@H]2c3[nH]c4ccccc4c3C[C@H](C(=O)OC)N2C(=O)CCl)cc1 [RSL3] | 0 | 0 | 0 | 0 | – | 0 | 0 | 0 | 0 | 0 | 0 | 0 | 0 | 0 | 0 | 0 |
| CN1CCN(C(=O)c2ccc3cc(CCNc4ncnc5ccc(C#N)cc45)ccc3c2)CC1 [Senexin B] | 1 | 2.9 | 0 | 0 | – | 1.2 | 0 | 0.6 | 0.6 | 1.3 | 1.5 | 0 | 0 | 0 | 0.2 | 0 |
| COCCNCc1ccc(-c2cc3nccc(Oc4ccc(NC(=O)C5(C(=O)Nc6ccc(F)cc6)CC5)cc4F)c3s2)nc1 [Sitravatinib] | 1.6 | 2.5 | 2.5 | 0.4 | – | 2.2 | 0.45 | 2.1 | 2.1 | 1.1 | 0.3 | 1.1 | 1.5 | 1.4 | 5.8 | 1.2 |
| Cc1cn(-c2cc(NC(=O)c3ccc(C)c(Nc4nccc(-c5cnccn5)n4)c3)cc(C(F)(F)F)c2)cn1 [Radotinib] | 2.4 | 0 | 0 | 0 | – | 0.2 | 0 | 0 | 0 | 0 | 0 | 0 | 1.6 | 0 | 1 | 0 |
| Cc1cc(Nc2ncnc3ccc(NC4=NC(C)(C)CO4)cc23)ccc1Oc1ccn2ncnc2c1 [Tucatinib] | 0 | 0 | 0 | 0 | – | 0.5 | 0 | 0 | 0 | 0.1 | 0 | 0 | 1 | 0 | 0 | 0 |
